Measured values published in patent publication US4663456A, “2-(substituted piperazinylalkyl)β-carbolines useful in treatment of psychological disorders” (American Home Products Corporation, priority 1985, dated 1987).
pKi: −log10 of the molar value.

Legend:
limbic D-2 = molecular target: T1, limbic D-2 (Rattus norvegicus, UniProt P61169); experiment: limbic D-2 binding (3H-spiroperidol, homogenized limbic brain tissue)
T1 construct: from tissue; host or cells: homogenized limbic brain tissue
Description: Binding in the presence of the test compound is expressed as a percent of specific binding (total binding less binding in the presence of 1 μM (+)butaclamol). An inhibition constant (Ki) is calculated for each test compound to catagorize its limbic D-2 binding potential. The larger the number, the less potential for dopamine receptor binding and attendant side effects from administration of the antipsychotic agent.

[1] = tested on: conditioned avoidance responding in trained male CD rats; experiment: conditioned avoidance lever response test (block of avoidance responding, i.p.); type: in vivo, male CD rats (Charles River); settings: Rattus norvegicus, ip, from dose-effect regression line, read-out: AB50 (50% block in avoidance responding)
Text: The antipsychotic properties of the compounds of this invention were established by standard pharmacologically accepted procedures involving conditioned avoidance studies in which trained male CD rats (Charles River), 400-450 gm body weight are exposed to a fifteen second warning tone (conditioned stimulus) continued for an additional fifteen seconds accompanied by electric shock. The rat can avoid the electric shock by depression of a response lever (lever-response). A response during the initial warning tone is considered an avoidance response. The avoidance response is determined and expressed as a percentage of total trials from an appropriate number of trials and a 50% block in avoidance responding (AB50) is obtained from a dose-effect regression line. All the data is based upon (mg/kg) dosing of the animals.

T1 sequence (P61169 whole entry): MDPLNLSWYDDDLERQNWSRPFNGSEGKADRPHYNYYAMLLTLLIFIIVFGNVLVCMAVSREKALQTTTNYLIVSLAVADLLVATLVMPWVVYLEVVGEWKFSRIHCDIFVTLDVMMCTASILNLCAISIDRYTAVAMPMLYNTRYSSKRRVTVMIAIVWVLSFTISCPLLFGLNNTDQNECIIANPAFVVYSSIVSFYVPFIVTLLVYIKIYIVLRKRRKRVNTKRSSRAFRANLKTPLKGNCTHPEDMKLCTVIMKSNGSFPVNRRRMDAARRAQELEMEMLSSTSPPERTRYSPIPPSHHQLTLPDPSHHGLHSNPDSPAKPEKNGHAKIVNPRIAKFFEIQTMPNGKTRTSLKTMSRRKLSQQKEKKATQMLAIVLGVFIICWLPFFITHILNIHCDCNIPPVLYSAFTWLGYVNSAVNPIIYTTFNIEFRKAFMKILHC

Row | SMILES | pKi (limbic D-2; bound) | percent, limbic D-2 binding (limbic D-2; concentration not given) | ED50 [1]
1 | C[C@@H]1CN(CCCN2CCc3c([nH]c4ccccc34)C2)C[C@@H](C)N1 (relative stereo) [Example 3, 2-[3-(trans-3,5-Dimethyl-1-piperazinyl)propyl]-2,3,4,9-tetrahydro-1H-pyrido[3,4-b]indole] | < 5.30 | 38% | –
2 | c1cnc(N2CCN(CCCN3CCc4c([nH]c5ccccc45)C3)CC2)nc1 [Example 1, 2,3,4,9-Tetrahydro-2-[3-[4-(2-pyrimidinyl)-1-piperazinyl]propyl]-1H-pyrido[3,4-b]indole] | – | – | 34.7 mg/kg
